We go through 24 molecules from PMC8294059, “Identification and Immune Assessment of T Cell Epitopes in Five Plasmodium falciparum Blood Stage Antigens to Facilitate Vaccine Candidate Selection and Optimization” (Frontiers in Immunology, 2021).

For orientation: IC50 means the concentration that inhibits the measured activity by half.

Where a SMILES comes first, the peptide text is derived from it.

The first test has as its target HLA-A*0201 (Homo sapiens, UniProt P04439, D140Y/D185E/D98H/E176V/E277Q/G131W/G231S/I119V/I121R/I166T/I218V/L300P/L318F/N151K/N90K/P208A/P217A/Q86G/Q94H/R138H/R169H/T345S). As to the kind of experiment: In vitro class I HLA binding assay (fluorescence polarization competition). As to conditions: allele A*0201; fluorescence polarization competition. As for the experimental part: (§1) A cell-free class I HLA binding assay that allows for in vitro quantification of peptide-HLA binding affinity in a competition format was used. In this assay, a fluorescently labeled, high binding, control peptide is loaded onto 384-well ½-area plates along with unlabeled experimental peptides. To remove endogenous peptides and render the HLA A and B molecules receptive to binding, HLA is heated at 53°C for 15 minutes and immediately added to the assay. The mixture is then allowed to stand for three days. Once the mixture has reached steady equilibrium (at 72 hours), displacement of the high binding control peptide is measured through fluorescence polarization. Binding of experimental peptides is expressed as the percent inhibition of the labeled control peptide (experimental fluorescence / control fluorescence, multiplied by 100). The percent inhibition values for each experimental peptide (across a range of molar concentrations) are used to calculate the concentration which inhibits 50% of the labeled control peptide’s specific binding. This value is referred to as the peptide’s IC50.
DMSNEYSLFI [RH5_461]: the “IC50 (nM), in vitro HLA binding affinity” value is “Non-Binder”.

The test is the same for the next values; noted with them: allele A*0201; fluorescence polarization competition; read-out: IC50 (nM), in vitro HLA binding affinity.
Turning to `CC[C@H](C)[C@H](NC(=O)[C@H](CO)NC(=O)[C@H](C)NC(=O)[C@H](CC(=O)O)NC(=O)[C@H](CC(=O)O)NC(=O)[C@H](CC(N)=O)NC(=O)[C@H](Cc1ccc(O)cc1)NC(=O)[C@H](CCC(N)=O)NC(=O)[C@@H](N)Cc1ccccc1)C(=O)O` [RIPR_0991] (H-FQYNDDASI-OH), the IC50 was 275 nM.

For `CC[C@H](C)[C@H](NC(=O)[C@H](CCCCN)NC(=O)[C@H](Cc1c[nH]c2ccccc12)NC(=O)[C@@H](NC(=O)[C@@H](NC(=O)[C@H](CCC(N)=O)NC(=O)[C@H](CC(N)=O)NC(=O)[C@H](Cc1ccc(O)cc1)NC(=O)[C@@H](NC(=O)[C@@H](N)Cc1ccc(O)cc1)[C@@H](C)CC)[C@@H](C)CC)[C@@H](C)CC)C(=O)O` [RIPR_1011] (H-YIYNQIIWKI-OH), the IC50 is 1950 nM.

The next test has as its target HLA-A*0101 (Homo sapiens, UniProt P04439, A114D/A174V/A182V/D101N/D185E/E176A/E190D/L180R/Q94H/R68K/S129P/T187R/V100A/V91M/W191G). Kind of test: biochemical. In kind it is binding.
Details: not given
As for the experimental part:
as §1
Turning to `C[C@@H](O)[C@H](NC(=O)[C@@H](N)CC(=O)O)C(=O)N[C@@H](CC(=O)O)C(=O)N[C@@H](CO)C(=O)N[C@@H](CC(N)=O)C(=O)N[C@@H](Cc1c[nH]cn1)C(=O)N[C@H](C(=O)N1CCC[C@H]1C(=O)N[C@@H](CO)C(=O)N[C@@H](CC(N)=O)C(=O)O)[C@@H](C)O` [RH5_280] (H-DTDSNHTPSN-OH), inhibition was half-maximal at 5880 nM (IC50).

The test is the same for the next values; noted with them: allele A*0101; cell-free competition, fluorescence polarization at 72 hours; Non-binder = no dose-dependent inhibition; read-out: IC50.
Turning to `CC[C@H](C)[C@H](NC(=O)[C@H](CC(C)C)NC(=O)[C@H](CO)NC(=O)[C@H](CO)NC(=O)[C@@H](N)[C@@H](C)O)C(=O)N[C@@H](CCCCN)C(=O)N[C@@H](CCC(N)=O)C(=O)N[C@@H](CC(N)=O)C(=O)N[C@@H](CCCCN)C(=O)N[C@@H](Cc1ccc(O)cc1)C(=O)O` [EBA175_0114] (H-TSSLIKQNKY-OH), the IC50 came out at 37100 nM.

Consider `CC[C@H](C)[C@H](NC(=O)[C@H](CCCNC(=N)N)NC(=O)[C@H](CCC(=O)O)NC(=O)[C@@H](NC(=O)[C@@H](N)[C@@H](C)O)[C@@H](C)O)C(=O)N[C@@H](CO)C(=O)N[C@@H](CC(N)=O)C(=O)N[C@@H](CC(N)=O)C(=O)N[C@@H](CCC(=O)O)C(=O)N[C@@H](Cc1ccc(O)cc1)C(=O)O` [EBA175_1084] (H-TTERISNNEY-OH), for which the IC50 was determined as 904 nM.

Take `C[C@@H](O)[C@H](NC(=O)[C@@H](N)Cc1ccccc1)C(=O)N[C@@H](Cc1ccc(O)cc1)C(=O)N[C@@H](CC(=O)O)C(=O)N[C@@H](CO)C(=O)N[C@@H](CCC(=O)O)C(=O)N[C@@H](CCC(=O)O)C(=O)N[C@@H](Cc1ccc(O)cc1)C(=O)N[C@@H](Cc1ccc(O)cc1)C(=O)O` [EBA175_1392] (H-FTYDSEEYY-OH): the IC50 is 136 nM.

Take `CC(C)C[C@H](NC(=O)[C@H](CCCCN)NC(=O)[C@H](CC(=O)O)NC(=O)[C@H](CC(C)C)NC(=O)[C@H](CC(N)=O)NC(=O)[C@H](CC(=O)O)NC(=O)[C@@H](NC(=O)[C@@H](N)C(C)C)[C@@H](C)O)C(=O)N[C@@H](CO)C(=O)N[C@@H](CC(N)=O)C(=O)O` [EBA175_1465] (H-VTDNLDKLSN-OH): the IC50 was 188000 nM.

The same test, now with this note: allele A*0101; fluorescence polarization competition; read-out: IC50 (nM), in vitro HLA binding affinity.
In the case of `N=C(N)NCCC[C@H](NC(=O)[C@@H](N)Cc1c[nH]cn1)C(=O)N[C@@H](CCC(=O)O)C(=O)N[C@@H](Cc1c[nH]cn1)C(=O)N1CCC[C@H]1C(=O)N[C@@H](CCCCN)C(=O)N[C@@H](CCC(=O)O)C(=O)N[C@@H](Cc1ccc(O)cc1)C(=O)N[C@@H](CCC(=O)O)C(=O)N[C@@H](Cc1ccc(O)cc1)C(=O)O` [AMA1_044] (H-HREHPKEYEY-OH), the IC50 stood at 11100 nM.

Consider `CC[C@H](C)[C@H](NC(=O)[C@H](CCC(=O)O)NC(=O)[C@@H](NC(=O)[C@@H](N)CO)[C@@H](C)CC)C(=O)N[C@H](C(=O)N[C@@H](CCC(=O)O)C(=O)N[C@@H](CCCNC(=N)N)C(=O)N[C@@H](CO)C(=O)N[C@@H](CC(N)=O)C(=O)N[C@@H](Cc1ccc(O)cc1)C(=O)O)C(C)C` [AMA1_096] (H-SIEIVERSNY-OH), for which the IC50 was found to be 12100 nM.

On to `CC(C)C[C@H](N)C(=O)N[C@H](C(=O)N1CCC[C@H]1C(=O)N[C@H](C(=O)N[C@@H](C)C(=O)N[C@H](C(=O)NCC(=O)N[C@@H](CC(N)=O)C(=O)N[C@@H](CCC(N)=O)C(=O)N[C@@H](Cc1ccc(O)cc1)C(=O)O)[C@@H](C)O)C(C)C)[C@@H](C)O` [AMA1_166] (H-LTPVATGNQY-OH), for which the IC50 amounted to 2560 nM.

`CC[C@H](C)[C@H](N)C(=O)N1CCC[C@H]1C(=O)N[C@@H](CC(=O)O)C(=O)N[C@@H](CC(N)=O)C(=O)N[C@@H](CC(=O)O)C(=O)N[C@@H](CCCCN)C(=O)N[C@@H](CC(N)=O)C(=O)N[C@@H](CO)C(=O)N[C@@H](CC(N)=O)C(=O)N[C@@H](Cc1ccc(O)cc1)C(=O)O` [AMA1_225] (H-IPDNDKNSNY-OH): the IC50 was 14700 nM.

In the case of `C[C@H](N)C(=O)N[C@@H](CO)C(=O)N[C@@H](CC(=O)O)C(=O)N[C@@H](CCC(N)=O)C(=O)N1CCC[C@H]1C(=O)N[C@@H](CCCCN)C(=O)N[C@@H](CCC(N)=O)C(=O)N[C@@H](Cc1ccc(O)cc1)C(=O)N[C@@H](CCC(=O)O)C(=O)N[C@@H](CCC(N)=O)C(=O)O` [AMA1_346] (H-ASDQPKQYEQ-OH), the IC50 was 126000 nM.

Turning to `CC[C@H](C)[C@H](NC(=O)[C@H](Cc1c[nH]cn1)NC(=O)[C@@H](NC(=O)[C@H](CCC(=O)O)NC(=O)[C@H](CC(=O)O)NC(=O)[C@H](CCC(=O)O)NC(=O)[C@H](CCC(=O)O)NC(=O)CN)[C@@H](C)O)C(=O)N[C@@H](Cc1ccc(O)cc1)C(=O)O` [CYRPA_070] (H-GEEDETHIY-OH), the IC50 worked out at 261000 nM.

On to `CC(C)C[C@H](NC(=O)[C@@H](NC(=O)[C@H](CO)NC(=O)[C@@H](NC(=O)[C@@H](N)CC(=O)O)C(C)C)[C@@H](C)O)C(=O)N[C@@H](CC(N)=O)C(=O)N[C@@H](CC(=O)O)C(=O)N[C@@H](CCC(=O)O)C(=O)N[C@@H](Cc1ccc(O)cc1)C(=O)O` [CYRPA_282] (H-DVSTLNDEY-OH), for which the IC50 is 52200 nM.

In the case of `CC[C@H](C)[C@H](NC(=O)[C@H](Cc1ccc(O)cc1)NC(=O)[C@H](CCC(=O)O)NC(=O)[C@H](CC(=O)O)NC(=O)[C@H](CC(N)=O)NC(=O)[C@@H](N)CC(C)C)C(=O)N[C@H](C(=O)N[C@@H](CO)C(=O)N[C@@H](Cc1ccc(O)cc1)C(=O)O)C(C)C` [CYRPA_286] (H-LNDEYIVSY-OH), the IC50 is 28100 nM.

Turning to `CC[C@H](C)[C@H](NC(=O)[C@H](CO)NC(=O)[C@@H](N)CC(N)=O)C(=O)N[C@@H](CC(C)C)C(=O)N[C@H](C(=O)N[C@@H](CCCCN)C(=O)N1CCC[C@H]1C(=O)N[C@@H](CCC(=O)O)C(=O)N[C@@H](CCCCN)C(=O)N[C@@H](Cc1ccc(O)cc1)C(=O)O)[C@@H](C)CC` [CYRPA_311] (H-NSILIKPEKY-OH), the IC50 stood at 109000 nM.

Take `CC[C@H](C)[C@H](NC(=O)[C@H](CC(=O)O)NC(=O)[C@H](CC(=O)O)NC(=O)[C@H](CCCCN)NC(=O)[C@H](CCC(=O)O)NC(=O)[C@H](CCC(=O)O)NC(=O)[C@H](CCC(=O)O)NC(=O)[C@@H](NC(=O)[C@@H](N)CO)[C@@H](C)O)C(=O)N[C@@H](CCCCN)C(=O)O` [RH5_46] (H-STEEEKDDIK-OH): the IC50 was found to be 6830 nM.

`CC(C)C[C@H](NC(=O)CNC(=O)[C@H](CC(=O)O)NC(=O)[C@H](CC(N)=O)NC(=O)[C@@H](NC(=O)[C@H](CC(N)=O)NC(=O)[C@@H](NC(=O)[C@@H](N)CC(N)=O)[C@@H](C)O)C(C)C)C(=O)N[C@@H](CCCCN)C(=O)N[C@@H](Cc1ccc(O)cc1)C(=O)O` [RH5_88] (H-NTNVNDGLKY-OH): the IC50 was determined as 4120 nM.

On to `CC(C)[C@H](NC(=O)[C@H](CC(N)=O)NC(=O)[C@H](CCCCN)NC(=O)[C@H](Cc1ccc(O)cc1)NC(=O)[C@H](CC(=O)O)NC(=O)[C@H](CCC(=O)O)NC(=O)[C@H](CC(N)=O)NC(=O)[C@@H](N)CC(N)=O)C(=O)N[C@@H](CC(=O)O)C(=O)N[C@@H](Cc1ccc(O)cc1)C(=O)O` [RH5_130] (H-NNEDYKNVDY-OH), for which the IC50 came to 7990 nM.

In the case of `CC(C)[C@H](NC(=O)[C@H](CC(N)=O)NC(=O)[C@H](CCCCN)NC(=O)[C@H](Cc1ccc(O)cc1)NC(=O)[C@H](CC(=O)O)NC(=O)[C@H](CCC(=O)O)NC(=O)[C@@H](N)CC(N)=O)C(=O)N[C@@H](CC(=O)O)C(=O)N[C@@H](Cc1ccc(O)cc1)C(=O)O` [RH5_131] (H-NEDYKNVDY-OH), the IC50 is 8920 nM.

Consider `CC[C@H](C)[C@H](NC(=O)[C@@H](NC(=O)[C@H](Cc1ccccc1)NC(=O)[C@H](CC(=O)O)NC(=O)[C@H](CC(C)C)NC(=O)[C@@H](N)Cc1c[nH]cn1)C(C)C)C(=O)N[C@H](C(=O)N1CCC[C@H]1C(=O)N[C@@H](Cc1c[nH]cn1)C(=O)N[C@@H](Cc1ccc(O)cc1)C(=O)O)[C@@H](C)CC` [RH5_170] (H-HLDFVIIPHY-OH), for which the IC50 came out at 118000 nM.

For `N=C(N)NCCC[C@H](NC(=O)[C@H](Cc1ccc(O)cc1)NC(=O)[C@H](CO)NC(=O)[C@H](CC(=O)O)NC(=O)[C@H](CC(=O)O)NC(=O)[C@H](CC(N)=O)NC(=O)[C@H](CCCCN)NC(=O)[C@@H](N)CC(N)=O)C(=O)N[C@@H](Cc1ccc(O)cc1)C(=O)O` [RH5_246] (H-NKNDDSYRY-OH), the IC50 amounted to 6680 nM.

`CC[C@H](C)[C@H](NC(=O)CNC(=O)[C@H](CC(N)=O)NC(=O)[C@@H](NC(=O)[C@@H](N)CC(N)=O)[C@@H](C)O)C(=O)N[C@@H](CCCNC(=N)N)C(=O)N[C@@H](Cc1ccc(O)cc1)C(=O)N[C@@H](Cc1c[nH]cn1)C(=O)N[C@@H](Cc1ccc(O)cc1)C(=O)O` [RH5_352] (H-NTNGIRYHY-OH): the IC50 came to 4380 nM.
